Holding throughout (format): in vivo
The test system of test [1] is Avena fatua (AVEFA). The test is described as follows: Example B pre-emergence herbicidal test, AVEFA. As to conditions: Avena fatua, 312 h, rate 250 g/ha, evaluated after 13 days, 100=total damage to plant, 0=no damage to plant. The protocol:
(§1) Seeds of a variety of test species were sown in standard soil in pots. After cultivation for one day (pre-emergence) or after 8 days cultivation (post-emergence) under controlled conditions in a glasshouse (at 24/16° C., day/night; 14 hours light; 65% humidity), the plants were sprayed with an aqueous spray solution derived from the formulation of the technical active ingredient in acetone/water (50:50) solution containing 0.5% Tween 20 (polyoxyethelyene sorbitan monolaurate, CAS RN 9005-64-5). The test plants were then grown in a glasshouse under controlled conditions in a glasshouse (at 24/16° C., day/night; 14 hours light; 65% humidity) and watered twice daily. After 13 days for pre and post-emergence, the test was evaluated (100=total damage to plant; 0=no damage to plant). Lolium perenne (LOLPE), Alopecurus myosuroides (ALOMY), Echinochloa crus-galli (ECHCG), Avena fatua (AVEFA) Pre-Emergence Activity

Test [2] concerns Lolium perenne (LOLPE). The test is described as follows: Example B post-emergence herbicidal test, LOLPE. The following applies: Lolium perenne, 312 h, rate 250 g/ha, evaluated after 13 days, scale 0-100, read-out: Post-emergence activity LOLPE (100=total damage to plant; 0=no damage to plant). The protocol:
as §1, with “Post-Emergence” for “Pre-Emergence”

Test [3] has as its system Avena fatua (AVEFA). The experiment in a line: Example B post-emergence herbicidal test, AVEFA. The following applies: Avena fatua, 312 h, rate 250 g/ha, evaluated after 13 days, scale 0-100, read-out: Post-emergence activity AVEFA (100=total damage to plant; 0=no damage to plant). The protocol: as §1, with “Post-Emergence” for “Pre-Emergence”
The test system of test [4] is Alopecurus myosuroides (ALOMY). The test is described as follows: Example B post-emergence herbicidal test, ALOMY. The following applies: Alopecurus myosuroides, 312 h, rate 250 g/ha, evaluated after 13 days, scale 0-100, read-out: Post-emergence activity ALOMY (100=total damage to plant; 0=no damage to plant). The protocol:
as §1, with “Post-Emergence” for “Pre-Emergence”

Test [5] relates to Echinochloa crus-galli (ECHCG). The test is described as follows: Example B post-emergence herbicidal test, ECHCG. The following applies: Echinochloa crus-galli, 312 h, rate 250 g/ha, evaluated after 13 days, scale 0-100, read-out: Post-emergence activity ECHCG (100=total damage to plant; 0=no damage to plant). The protocol:
as §1, with “Post-Emergence” for “Pre-Emergence”

Test [6] has as its system Lolium perenne (LOLPE). The experiment in a line: Example B pre-emergence herbicidal test, LOLPE. The following applies: Lolium perenne, 312 h, rate 250 g/ha, evaluated after 13 days, 100=total damage to plant, 0=no damage to plant. The protocol:
as §1

The test system of test [7] is Alopecurus myosuroides (ALOMY). The experiment in a line: Example B pre-emergence herbicidal test, ALOMY. The following applies: Alopecurus myosuroides, 312 h, rate 250 g/ha, evaluated after 13 days, 100=total damage to plant, 0=no damage to plant. The protocol: as §1
For test [8], the system named is Echinochloa crus-galli (ECHCG). The experiment in a line: Example B pre-emergence herbicidal test, ECHCG. The following applies: Echinochloa crus-galli, 312 h, rate 250 g/ha, evaluated after 13 days, 100=total damage to plant, 0=no damage to plant. The protocol: as §1

For the compound `Cc1cc(C)c(C2=C(OC(=O)Oc3ccccc3)CC(CC3CCOC3)C2=O)c(C)c1` (stereo not shown) [Compound P26], the pest or weed control at 250 g/ha in test [1] came to 80%; in test [2] it was 100%; in test [3], 90%; in test [4], 100%; in test [5] it was 100%; in test [6], 100%. For the same compound, the figures for the pest or weed control at 250 g/ha in test [7] and in test [8] were 100% and 90%, respectively.

As to `CCS(=O)(=O)OC1=C(c2c(C)cc(C)cc2C)C(=O)C(CC2CCOC2)C1` (stereo not shown) [Compound P27], the pest or weed control at 250 g/ha in test [1] stood at 80%; in test [2], 100%; in test [3] it was 80%; in test [4] it was 80%; in test [5] it was 90%; in test [6], 100%. The pest or weed control at 250 g/ha in test [7] was 100%; in test [8], 80%.

With `Cc1cc(C)c(C2=C(OS(=O)(=O)C3CC3)CC(CC3CCOC3)C2=O)c(C)c1` (stereo not shown) [Compound P28], the pest or weed control at 250 g/ha was 30% in test [1]; 100% in test [2]; 70% in test [3]; 70% in test [4]; 60% in test [5]; 100% in test [6]. The pest or weed control at 250 g/ha in test [7] was determined as 70%; in test [8], 20%.

In the case of `Cc1cc(C)c(C2=C(OC(=O)N3CCCCC3)CC(CC3CCOC3)C2=O)c(C)c1` (stereo not shown) [Compound P29], the pest or weed control at 250 g/ha in test [1] was 20%; in test [2], 100%; in test [3], 70%; in test [4] it was 80%; in test [5] it was 30%; in test [6], 90%. In addition, the figures for the pest or weed control at 250 g/ha in test [7] and in test [8] were 50% and 0%, respectively.

`CCSC(=O)OC1=C(c2c(C)cc(C)cc2C)C(=O)C(CC2CCOC2)C1` (stereo not shown) [Compound P30]: the pest or weed control at 250 g/ha worked out at 90% in test [1]; 100% in test [2]; 100% in test [3]; 100% in test [4]; 90% in test [5]; 100% in test [6]. For the same compound, the pest or weed control at 250 g/ha turned out to be 100% in test [7] and 80% in test [8].

For `Cc1cc(C)c(C2=C(OC(=O)OC(C)C)CC(CC3CCOC3)C2=O)c(C)c1` (stereo not shown) [Compound P31], the pest or weed control at 250 g/ha came to 90% in test [1]; 100% in test [2]; 90% in test [3]; 90% in test [4]; 100% in test [5]; 100% in test [6]. Further, the pest or weed control at 250 g/ha in test [7] and in test [8] was 100% in each case.

As for `Cc1cc(C)c(C2=C(OC(=O)C(C)(C)C)CC(CCC3CCOCC3)C2=O)c(C)c1` (stereo not shown) [Compound P34], the pest or weed control at 250 g/ha was 90% in test [1]; 100% in test [2]; 90% in test [3]; 80% in test [4]; 60% in test [5]; 100% in test [6]. In addition, the pest or weed control at 250 g/ha is 90% in test [7] and 100% in test [8].

In the case of `Cc1cc(C)c(C2=C(OC(=O)C(C)(C)C)CC(CC3CCCOC3)C2=O)c(C)c1` (stereo not shown) [Compound P37], the pest or weed control at 250 g/ha in test [1] stood at 70%; in test [2] it was 90%; in test [3] it was 90%; in test [4] it was 90%; in test [5] it was 90%; in test [6], 100%. The pest or weed control at 250 g/ha in test [7] was found to be 100%; in test [8] it was 70%.

Consider `CC(=O)OC1=C(c2c(C)cc(C)cc2C)C(=O)/C(=C/C2CCN(C(C)=O)C2)C1` (stereo not shown) [Compound P42], for which the pest or weed control at 250 g/ha is 0% in test [1]; 40% in test [2]; 70% in test [3]; 60% in test [4]; 70% in test [5]; 40% in test [6]. The pest or weed control at 250 g/ha in test [7] and in test [8] was 30% each time.

With `COC(=O)OC1=C(c2c(C)cc(C)cc2C)C(=O)C(CC2CCOCC2)C1` (stereo not shown) [Compound P45], the pest or weed control at 250 g/ha in test [1] was found to be 100%; in test [2], 100%; in test [3], 100%; in test [4], 100%; in test [5], 90%; in test [6], 100%. Moreover, the pest or weed control at 250 g/ha in test [7] and in test [8] was 100% each time.

In the case of `Cc1cc(C)c(C2=C(OS(C)(=O)=O)C/C(=C\C3CCN(S(C)(=O)=O)C3)C2=O)c(C)c1` (stereo not shown) [Compound P46], the pest or weed control at 250 g/ha in test [1] worked out at 60%; in test [2], 80%; in test [3], 90%; in test [4], 90%; in test [5], 70%; in test [6] it was 90%. Also, the pest or weed control at 250 g/ha in test [7] is 70%; in test [8] it was 100%.

In the case of `CCSC(=O)OC1=C(c2c(C)cc(C)cc2C)C(=O)/C(=C/C2CCN(C(=O)SCC)C2)C1` (stereo not shown) [Compound P47], the pest or weed control at 250 g/ha in test [1] was 50%; in test [2], 60%; in test [3] it was 60%; in test [4], 70%; in test [5], 50%; in test [6], 60%. Further, the pest or weed control at 250 g/ha in test [7] worked out at 30%; in test [8], 60%.

`Cc1cc(C)c(C2=C(OC(=O)c3ccccc3)C/C(=C\C3CCN(C(=O)c4ccccc4)C3)C2=O)c(C)c1` (stereo not shown) [Compound P48]: the pest or weed control at 250 g/ha in test [1] was 60%; in test [2] it was 90%; in test [3], 100%; in test [4], 90%; in test [5], 90%; in test [6] it was 80%. Besides, the pest or weed control at 250 g/ha in test [7] amounted to 70%; in test [8] it was 40%.

Take `Cc1cc(C)c(C2=C(OC(=O)C(C)(C)C)CC(CC3COCCO3)C2=O)c(C)c1` (stereo not shown) [Compound P49]: the pest or weed control at 250 g/ha was 60% in test [1]; 100% in test [2]; 90% in test [3]; 80% in test [4]; 100% in test [5]; 100% in test [6]. Also, the pest or weed control at 250 g/ha in test [7] is 80%; in test [8], 100%.

Values taken from patent US9096560B2, “5-heterocyclylalkyl-3-hydroxy-2-phenylcyclopent-2-enones as herbicides” (Syngenta Limited, priority 2008, dated 2015).
